From publication PMC5854708, “Grass Carp Prolactin Gene: Structural Characterization and Signal Transduction for PACAP-induced Prolactin Promoter Activity” (Scientific Reports, 2018)
Like-named read-outs stand apart in the source and are kept apart here.

Legend:
[1] = test system: grass carp PRL promoter (pPRL(−1156).Luc) in αT3-1 cells; assay type: cell-based, grass carp (promoter); rat (αT3-1 cells, as printed); details: for effect on Forskolin-induced luciferase activity: Forskolin 100 nM
Experimental: The cells were then cultured for 18 hr recovery before drug treatment. (A) Time course analysis on the effect of oPACAP38 (6–48 hrs) on grass carp PRL promoter activity in αT3-1 cells. (B) αT3-1 cells over-expressed pPRL(−1156).LUC were treated for 24 hrs with increasing doses of oPACAP38. Effects of PACAP and VIP antagonists on PACAP-induced PRL mRNA expression were also investigated. In these experiments, αT3-1 cells over-expressed pPRL(−1156).LUC were challenged with oPACAP38 (10 nM, 24 hr) in the presence or absence of (C) the PACAP antagonist PACAP6-38 (10 nM) or (D) VIP antagonist (4-Cl-D-Phe6, Leu17)VIP (“VIP-R antagonist”, 100 nM).
After 18 h recovery, the cells were incubated with respective drugs. (A) αT3-1 cells over-expressed pPRL(−1156).LUC were treated for 24 hrs with increasing doses of cpt-cAMP (1–100 μM). (B) αT3-1 cells over-expressed pPRL(−1156).LUC were treated for 24 hrs with increasing doses of Forskolin (10–1000 nM). Effects of cAMP/PKA inhibitors on PACAP-induced PRL mRNA expression were then investigated. αT3-1 cells over-expressed pPRL(−1156).LUC were challenged with oPACAP38 (10 nM, 24 hr) in the presence or absence of (C) AC inhibitor MDL12330A (10 μM) or (D) PKA blocker H89 (10 μM).
After 18 h recovery, the cells were incubated with respective drugs. The cells were treated for 24 hr with increasing doses of (A) Ca^2+ ionophore A23187 or (B) L-type VSCC activator Bay K8644. Inhibiting extracellular Ca^2+ entry on PRL mRNA expression in carp pituitary cells was examined. In this study, αT3-1 cells over-expressed pPRL(−1156).LUC were treated with (C) oPACAP38 (10 nM, 24 hrs) or (D) Forskolin (100 nM, 24 hrs) in the Ca^2+-free medium (with different doses of EGTA).
After 18 h recovery, the cells were incubated with respective drugs.

[2] = test system: PRL secretion / PRL gene expression; details: mammals, cited from earlier work
Excerpt: (§1) PACAP and vasoactive intestinal peptide (VIP) are members of the glucagon/secretin peptide family and have been reported to play roles in PRL regulation. […] In contrast to VIP, the biological actions of PACAP on ...

[3] = test system: PRL gene expression in GH4C1 cells; details: cited from earlier work
Excerpt: as §1

PAC1 receptors = details: cited from earlier work
Excerpt: as §1

PRL promoter = test system: PRL promoter; parameters: method as in 2 sources, one per row (each row's own in cited_ref): ref 2 = [2]; PMID 15731170; doi:10.1210/me.2004-0111; 2. Liu, J. C., Baker, R. E., Chow, W., Sun, C. K. & Elsholtz, H. P. Epigenetic mechanisms in the dopamine D2 receptor-dependent inhibition of the prolactin gene. Mol Endocrinol 19 , 1904–1917, doi:10. ||| ref 3 = [3]; PMID 1922085; doi:10.1210/mend-5-4-535; 3. Yan GZ Pan WT Bancroft C Thyrotropin-releasing hormone action on the prolactin promoter is mediated by the POU protein pit-1 Mol Endocrinol 1991 5 535 541 10.1210/mend-5-4-535 1922085; details: mammals, cited from earlier work
Excerpt: (§2) Prolactin (PRL) is a pituitary hormone with diverse function. […] In mammals, transcription of PRL gene is regulated by multiple factors. […] Furthermore, sex steroid ...

[4] = test system: PRL promoter / PRL transcript; parameters: method as in PMID 17904137; details: goldfish; cited from earlier work
Excerpt: as §2

PRL gene transcription = test system: PRL gene transcription; parameters: method as in PMID 18006630, PMID 18022314; details: human; cited from earlier work
Excerpt: as §2

[5] = W7 30 μM or W13 100 μM, pre-treated 15 mins, PACAP 100 nM (Supplementary Fig. 4), 24 hours, n = 4
[6] = calmidazolium 1 μM, W7 30 μM, W13 100 μM or KN62 5 μM, n = 4
[7] = U0126, PD169316 or SP600125, each 10 μM, n = 4
[8] = U0126, PD169316 or SP600125, each 10 μM, oPACAP38 10 nM, 24 hrs, n = 4
[9] = LY294002 10 μM or Wortmannin 10 nM, n = 4
[10] = 24-hr, A23187 1–100 nM or Bay K8644 1–100 nM, n = 4
[11] = calmidazolium 1 μM or KN62 5 μM, oPACAP38 10 nM, 24 hrs, n = 4
[12] = 24 hr, MDL12330A 10 μM or H89 10 μM, n = 4
[13] = oPACAP38 10 nM, 24 hr, MDL12330A 10 μM or H89 10 μM, n = 4

Molecule: NCCCCCCNS(=O)(=O)c1cccc2c(Cl)cccc12 [W7]
- effect on PACAP-stimulated luciferase activity [1, 5]: suppressed/totally inhibited
- effect on basal luciferase activity [1, 6]: suppressed/totally inhibited

Molecule: CN(C)CCCn1cc(C2=C(c3c[nH]c4ccccc34)C(=O)NC2=O)c2ccccc21 [GF109203]
- effect on PACAP-induced luciferase activity ([1]; GF109203 1 μM, oPACAP38 10 nM, 24 hrs, n = 4): not effective in altering PACAP induction

Molecule: Oc1c2ccccc2c2c3c(cccc13)N=N2 [SP600125]
- effect on basal luciferase activity [1, 7]: not affected
- effect on PACAP-induced luciferase activity [1, 8]: not affected

Molecule: COc1ccc2c(c1)CC[C@@H]1[C@@H]2CC[C@]2(C)[C@@H](NCCCCCCN3C(=O)C=CC3=O)CC[C@@H]12 [U73122]
- effect on PACAP-stimulated luciferase activity ([1]; U73122 10 μM, pre-treated 15 mins, PACAP 100 nM (Supplementary Fig. 4), 24 hours, n = 4): effectively abolished

Molecule: NCCCCNS(=O)(=O)c1ccc2c(Cl)cccc2c1 [W13]
- effect on PACAP-stimulated luciferase activity [1, 5]: suppressed/totally inhibited
- effect on basal luciferase activity [1, 6]: suppressed/totally inhibited

Molecule: Nc1ncnc2c1nc(Sc1ccc(Cl)cc1)n2C1OC2COP(=O)(O)OC2C1O (centres unmarked) [cpt-cAMP, 8-(4-chlorophenylthio)-cAMP]
- effect on luciferase activity expression ([1]; 24 hrs, cpt-cAMP 1–100 μM, n = 4): dose-dependently increased

Molecule: PACAP6–38
- effect on oPACAP38-induced PRL promoter activity ([1]; oPACAP38 10 nM, 24 hr, antagonist PACAP6–38 100 nM (text; legend: 10 nM), n = 4): blocked

Molecule: CCCCCCCCCCCCCCCCCCOCC(COP(=O)([O-])OCC[N+](C)(C)C)OC (centres unmarked) [Edelfosine]
- effect on PACAP-stimulated luciferase activity ([1]; Edelfosine 20 μM or 2-APB 100 μM, oPACAP38 10 nM, 24 hrs, n = 4): effectively abolished

Molecule: O=C(O)CN(CCOCCOCCN(CC(=O)O)CC(=O)O)CC(=O)O [EGTA]
- effect on Forskolin-induced luciferase activity ([1]; EGTA 1–4 mM, Ca^2+-free medium, 24 hrs, n = 4): suppressed dose-dependently
- effect on PACAP-induced luciferase activity ([1]; EGTA 1–4 mM, Ca^2+-free medium, oPACAP38 10 nM, 24 hrs, n = 4): suppressed dose-dependently

Molecule: O=c1cc(N2CCOCC2)oc2c(-c3ccccc3)cccc12 [LY294002]
- effect on basal luciferase activity [1, 9]: effective in reducing
- effect on PACAP-induced luciferase activity ([1]; LY294002 10 μM, pre-treated 15 mins, PACAP 100 nM (Supplementary Fig. 4), 24 hours, n = 4): effective in reducing

Molecule: CNc1ccc2oc(C[C@H]3O[C@@]4(CC[C@H]3C)O[C@H]([C@H](C)C(=O)c3ccc[nH]3)[C@H](C)C[C@H]4C)nc2c1C(=O)O [A23187]
- effect on luciferase activity expression [1, 10]: effective in stimulating luciferase activity expression

Molecule: N#CC(=C(/N)Sc1ccccc1N)/C(C#N)=C(/N)Sc1ccccc1N [U0126]
- effect on basal luciferase activity [1, 7]: not affected
- effect on PACAP-induced luciferase activity [1, 8]: not affected

Molecule: vasoactive intestinal peptide [VIP]
- effect on PRL secretion ([2]; ref 8): stimulatory effects
- effect on PRL gene expression ([2]; ref 9): stimulatory effects
- effect on PRL gene expression [3]: stimulatory effects
- affinity/specificity at PAC1 receptors (PAC1 receptors): little/very low affinity

Molecule: NCCc1ccc(O)c(O)c1 [Dopamine]
- effect on PRL promoter activity (PRL promoter; via dopamine D2 receptor activation): inhibitory effect on PRL promoter activity
- effect on PRL promoter activity [4]: inhibition of PRL promoter activity

Molecule: COC(=O)C1=C(C)NC(C)=C(C(=O)OC)C1c1ccccc1[N+](=O)[O-] [nifedipine]
- effect on Forskolin-induced luciferase activity ([1]; nifedipine 10 μM, 24 hrs, n = 4): effective in attenuating
- effect on PACAP-induced luciferase activity ([1]; nifedipine 10 μM, oPACAP38 10 nM, 24 hrs, n = 4): effective in attenuating

Molecule: CN([C@@H](Cc1ccc(OS(=O)(=O)c2cccc3cnccc23)cc1)C(=O)N1CCN(c2ccccc2)CC1)S(=O)(=O)c1cccc2cnccc12 [KN62]
- effect on PACAP-stimulated luciferase activity [1, 11]: suppressed/totally inhibited
- effect on basal luciferase activity [1, 6]: suppressed/totally inhibited

Molecule: O=S(=O)(NCCNC/C=C/c1ccc(Br)cc1)c1cccc2cnccc12 [H89]
- effect on basal luciferase activity [1, 12]: markedly suppressed
- effect on oPACAP38-induced luciferase activity [1, 13]: totally abolished

Molecule: COC[C@H]1OC(=O)c2coc3c2[C@@]1(C)C1=C(C3=O)[C@@H]2CCC(=O)[C@@]2(C)C[C@H]1OC(C)=O [Wortmanin]
- effect on basal luciferase activity [1, 9]: effective in reducing
- effect on PACAP-induced luciferase activity ([1]; Wortmannin 10 nM, oPACAP38 10 nM, 24 hrs, n = 4): effective in reducing

Molecule: NCCOB(c1ccccc1)c1ccccc1 [2-APB, 2-aminoethoxydiphenyl borate]
- effect on PACAP-stimulated luciferase activity [1]: effectively abolished

Molecule: Cl.c1ccc(C2CCCC2NC2=NCCCCCCCCCCC2)cc1 (centres unmarked) [MDL12330A]
- effect on basal luciferase activity [1, 12]: markedly suppressed
- effect on oPACAP38-induced luciferase activity [1, 13]: totally abolished

Molecule: estrogen
- effect on PRL gene transcription (PRL gene transcription): potent stimulator for PRL gene transcription

Molecule: CO[C@H]1C[C@@H]2CC[C@@H](C)[C@@](O)(O2)C(=O)C(=O)N2CCCC[C@H]2C(=O)O[C@H]([C@H](C)C[C@@H]2CC[C@@H](O)[C@H](OC)C2)CC(=O)[C@H](C)/C=C(\C)[C@@H](O)[C@@H](OC)C(=O)[C@H](C)C[C@H](C)/C=C/C=C/C=C/1C [rapamycin]
- effect on PACAP-induced luciferase activity ([1]; rapamycin 20 nM, oPACAP38 10 nM, 24 hrs, n = 4): attenuated

Molecule: COC(=O)C1=C(C)NC(C)=C([N+](=O)[O-])C1c1ccccc1C(F)(F)F (centres unmarked) [Bay K8644]
- effect on luciferase activity expression [1, 10]: effective in stimulating luciferase activity expression

Molecule: C=C[C@@]1(C)CC(=O)[C@]2(O)[C@@]3(C)[C@@H](O)CCC(C)(C)[C@@H]3[C@H](O)[C@H](OC(C)=O)[C@@]2(C)O1 [Forskolin]
- effect on luciferase activity expression ([1]; 24 hrs, Forskolin 10–1000 nM, n = 4): dose-dependently increased

Molecule: Clc1ccc(C(c2ccc(Cl)cc2)n2cc[n+](CC(OCc3ccc(Cl)cc3Cl)c3ccc(Cl)cc3Cl)c2)cc1 (centres unmarked) [calmidazolium]
- effect on PACAP-stimulated luciferase activity [1, 11]: suppressed/totally inhibited
- effect on basal luciferase activity [1, 6]: suppressed/totally inhibited

Molecule: thyrotropin-releasing hormone [TRH]
- effect on PRL promoter (PRL promoter; via pit-1 transactivation): stimulate PRL promoter
- effect on PRL promoter activity [4]: suppressed
- effect on PRL transcript expression [4]: suppressed
